Reference: article PMC12675387, “Receptor interaction profiles of 4-alkoxy-2,6-dimethoxyphenethylamines (Ψ derivatives) and related amphetamines” (Frontiers in Pharmacology, 2025)

Key:
hNET = hNET (Homo sapiens, UniProt P23975); assay: Radioligand binding, NET (N-methyl-[3H]nisoxetine)
hD2 receptor = hD2 receptor (Homo sapiens, UniProt P14416); assay: Radioligand binding, dopaminergic D2 receptor ([3H]spiperone)
hα1A adrenergic receptor = target: T1, hα1A adrenergic receptor (Homo sapiens, UniProt P35348); assay: Radioligand binding, α1A adrenergic receptor ([3H]prazosin); details: hα1A Ki ± SD
T1 sequence (P35348 1-466): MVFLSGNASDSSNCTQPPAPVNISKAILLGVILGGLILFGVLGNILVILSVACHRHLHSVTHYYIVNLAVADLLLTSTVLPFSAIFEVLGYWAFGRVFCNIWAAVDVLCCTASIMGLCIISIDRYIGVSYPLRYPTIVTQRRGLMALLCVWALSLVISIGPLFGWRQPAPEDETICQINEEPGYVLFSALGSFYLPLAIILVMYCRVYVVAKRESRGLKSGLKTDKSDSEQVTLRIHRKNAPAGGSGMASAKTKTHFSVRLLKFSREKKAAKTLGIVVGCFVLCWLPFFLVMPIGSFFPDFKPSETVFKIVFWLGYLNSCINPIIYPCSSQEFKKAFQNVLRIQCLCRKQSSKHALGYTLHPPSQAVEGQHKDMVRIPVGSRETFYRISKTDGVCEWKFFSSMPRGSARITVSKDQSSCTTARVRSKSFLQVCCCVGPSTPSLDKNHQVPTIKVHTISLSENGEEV

hDAT = hDAT (Homo sapiens, UniProt Q01959); assay: Radioligand binding, DAT ([3H]WIN35,428)
human 5-HT2A receptor = target: T2, human 5-HT2A receptor (Homo sapiens, UniProt P28223); assay: Activation potency and efficacy at the 5-HT2A receptor (FLIPR calcium, NIH-3T3 cells); format: cell-based; details: for Emax: NIH3T3, relative to 5-HT (100%), read-out: h5-HT2A activation efficacy Emax ± SD
T2 construct: expressed in transfected cells; host or cells: NIH-3T3 mouse embryonic fibroblasts
Method: The activation potency and efficacy at the 5-HT2A receptor were determined as previously described by [Luethi et al. (2018)]. In short, mouse embryonic fibroblasts (NIH-3T3 cells) stably transfected with the human 5-HT2A receptor were seeded in poly-D-lysine-coated 96 well plates at a density of 70,000 cells per 100 μL. Next, the cells were incubated in HEPES-Hank’s Balanced Salt Solution (HBSS) buffer (Gibco) for 1 h at 37 °C; the cells were then incubated with 100 μL of dye solution (fluorescence imaging plate reader [FLIPR] calcium 5 assay kit; Molecular Devices, Sunnyvale, CA, United States) per well for 1 h at 37 °C. The plate was then inserted into the FLIPR and 25 μL of the test compounds diluted in HEPES-HBSS buffer containing […] probenecid were added online. Increase of the fluorescence signal was measured and the activation potency (EC50) was calculated from the dose-response curves using nonlinear regression. The activation efficacy was calculated relative to 5-HT activity (defined as 100% activity).

human 5-HT2B receptor = target: T3, human 5-HT2B receptor (Homo sapiens, UniProt P41595); assay: Activation potency and efficacy at the 5-HT2B receptor (Fluo-4 calcium, HEK 293 cells); format: cell-based; details: for Emax: HEK293, relative to 5-HT (100%), read-out: h5-HT2B activation efficacy Emax ± SD
T3 construct: expressed in transfected cells; host or cells: HEK 293 cells
Method: The activation potency and efficacy at the 5-HT2B receptor were determined as previously described by [Luethi et al. (2018)]. In summary, HEK 293 cells stably transfected with the human 5-HT2B receptor were seeded in poly-D-lysine-coated 96 well plates at a density of 50,000 cells per well overnight at 37 °C in high glucose Dulbecco’s modified Eagle’s medium (DMEM; Invitrogen, Zug, Switzerland) supplemented with 10% fetal calf serum (non-dialyzed and heat-inactivated), 250 mg/L Geneticin, and 100 U/mL penicillin, and 100 μg/mL streptomycin (Gibco). The growth medium was removed by snap inversion and the cells were exposed to 100 μL calcium indication Fluo-4-solution (Molecular Probes, Eugene, OR, United States) for 45 min at 31 °C. Thereafter, the Fluo-4-solution was removed once again by snap inversion and was replaced with fresh 100 μL Fluo-4-solution. Next, the cells were washed with HBSS and 20 mM HEPES using the EMBLA cell washer and then exposed to the assay buffer (100 μL per well). Afterwards, 25 μL of test compounds diluted in assay buffer were added to the plate online. Dose–response curves were determined using nonlinear regression and EC50 values were calculated. The activation efficacy was calculated relative to the 5-HT activity (defined as 100%).

h5-HT2A receptor = h5-HT2A receptor (Homo sapiens, UniProt P28223); assay: Radioligand binding, 5-HT2A receptor ([3H]ketanserin); details: for Selectivity (binding ratio) 5-HT2A/5-HT1A: preference for 5-HT2A (Ki 5-HT1A divided by Ki 5-HT2A); for Selectivity (binding ratio) 5-HT2A/5-HT2C: preference for 5-HT2A (Ki 5-HT2C divided by Ki 5-HT2A)
hα2A adrenergic receptor = target: T4, hα2A adrenergic receptor (Homo sapiens, UniProt P08913); assay: Radioligand binding, α2A adrenergic receptor ([3H]rauwolscine)
T4 sequence (P08913 1-465): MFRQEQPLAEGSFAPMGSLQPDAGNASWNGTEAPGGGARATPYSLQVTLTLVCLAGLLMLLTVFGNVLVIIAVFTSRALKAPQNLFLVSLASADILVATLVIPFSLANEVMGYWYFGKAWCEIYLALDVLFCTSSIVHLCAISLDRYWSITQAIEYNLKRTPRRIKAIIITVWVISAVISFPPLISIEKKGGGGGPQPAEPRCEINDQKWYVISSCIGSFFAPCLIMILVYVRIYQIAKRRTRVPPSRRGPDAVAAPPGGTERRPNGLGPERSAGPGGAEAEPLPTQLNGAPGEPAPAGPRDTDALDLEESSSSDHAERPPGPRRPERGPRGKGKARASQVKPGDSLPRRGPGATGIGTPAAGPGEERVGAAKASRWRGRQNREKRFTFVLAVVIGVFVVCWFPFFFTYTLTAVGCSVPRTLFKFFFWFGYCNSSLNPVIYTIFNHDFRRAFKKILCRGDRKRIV

hSERT = hSERT (Homo sapiens, UniProt P31645); assay: Radioligand binding, SERT ([3H]citalopram)
rTAAR1 = rTAAR1 (Rattus norvegicus, UniProt Q923Y9); assay: Radioligand binding, rat TAAR1 ([3H]RO5166017)
Sequence of rTAAR1 (Q923Y9 whole entry): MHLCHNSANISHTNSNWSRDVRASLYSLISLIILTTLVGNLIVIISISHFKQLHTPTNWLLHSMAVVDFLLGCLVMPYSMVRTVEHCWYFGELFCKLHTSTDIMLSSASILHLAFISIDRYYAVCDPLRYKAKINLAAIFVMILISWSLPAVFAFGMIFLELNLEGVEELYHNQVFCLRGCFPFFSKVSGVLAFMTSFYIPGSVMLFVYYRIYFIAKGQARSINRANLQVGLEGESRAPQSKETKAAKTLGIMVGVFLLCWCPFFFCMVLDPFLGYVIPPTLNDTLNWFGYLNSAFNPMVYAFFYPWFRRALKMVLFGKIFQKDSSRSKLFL

Sequence of h5-HT2A receptor (P28223 whole entry): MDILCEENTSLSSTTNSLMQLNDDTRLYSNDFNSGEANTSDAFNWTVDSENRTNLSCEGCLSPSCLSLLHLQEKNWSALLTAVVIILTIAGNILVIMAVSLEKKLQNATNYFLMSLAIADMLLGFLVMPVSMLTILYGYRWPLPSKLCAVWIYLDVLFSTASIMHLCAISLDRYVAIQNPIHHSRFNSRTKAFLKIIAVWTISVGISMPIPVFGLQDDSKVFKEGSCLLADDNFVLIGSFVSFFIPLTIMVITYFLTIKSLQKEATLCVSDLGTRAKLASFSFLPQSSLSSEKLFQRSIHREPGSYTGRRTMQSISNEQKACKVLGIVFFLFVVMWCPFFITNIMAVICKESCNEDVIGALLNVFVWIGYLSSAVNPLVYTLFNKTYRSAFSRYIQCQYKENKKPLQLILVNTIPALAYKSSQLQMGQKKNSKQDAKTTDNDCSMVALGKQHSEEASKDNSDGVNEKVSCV
T2 sequence (P28223 whole entry): as above
Sequence of hD2 receptor (P14416 whole entry): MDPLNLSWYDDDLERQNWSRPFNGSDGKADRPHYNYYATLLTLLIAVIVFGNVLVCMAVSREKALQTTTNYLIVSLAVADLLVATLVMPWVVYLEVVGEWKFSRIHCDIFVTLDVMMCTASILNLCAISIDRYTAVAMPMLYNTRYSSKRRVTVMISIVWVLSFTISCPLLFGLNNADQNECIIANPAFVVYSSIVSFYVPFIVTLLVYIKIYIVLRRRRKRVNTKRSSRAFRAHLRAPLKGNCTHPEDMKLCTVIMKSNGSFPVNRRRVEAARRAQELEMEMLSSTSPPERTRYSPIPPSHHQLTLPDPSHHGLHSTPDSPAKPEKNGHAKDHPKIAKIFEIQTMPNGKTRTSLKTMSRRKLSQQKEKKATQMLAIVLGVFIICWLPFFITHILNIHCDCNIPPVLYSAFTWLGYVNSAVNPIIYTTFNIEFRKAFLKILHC
Sequence of hDAT (Q01959 whole entry): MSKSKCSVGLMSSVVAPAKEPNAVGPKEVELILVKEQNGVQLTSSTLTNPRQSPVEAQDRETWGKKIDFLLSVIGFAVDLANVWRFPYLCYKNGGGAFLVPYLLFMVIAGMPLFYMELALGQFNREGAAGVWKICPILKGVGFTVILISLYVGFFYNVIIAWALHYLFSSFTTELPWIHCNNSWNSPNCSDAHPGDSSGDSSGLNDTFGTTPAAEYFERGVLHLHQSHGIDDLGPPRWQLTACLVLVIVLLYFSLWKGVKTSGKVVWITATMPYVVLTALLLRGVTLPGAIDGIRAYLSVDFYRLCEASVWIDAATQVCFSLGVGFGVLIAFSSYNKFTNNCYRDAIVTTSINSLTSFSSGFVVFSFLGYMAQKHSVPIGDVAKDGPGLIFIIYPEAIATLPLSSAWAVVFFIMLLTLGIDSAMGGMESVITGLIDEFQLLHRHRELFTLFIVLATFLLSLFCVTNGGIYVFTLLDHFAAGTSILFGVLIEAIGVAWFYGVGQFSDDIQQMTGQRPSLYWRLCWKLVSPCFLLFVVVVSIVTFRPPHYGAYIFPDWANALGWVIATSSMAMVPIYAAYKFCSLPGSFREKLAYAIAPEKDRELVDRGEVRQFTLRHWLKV
T3 sequence (P41595 whole entry): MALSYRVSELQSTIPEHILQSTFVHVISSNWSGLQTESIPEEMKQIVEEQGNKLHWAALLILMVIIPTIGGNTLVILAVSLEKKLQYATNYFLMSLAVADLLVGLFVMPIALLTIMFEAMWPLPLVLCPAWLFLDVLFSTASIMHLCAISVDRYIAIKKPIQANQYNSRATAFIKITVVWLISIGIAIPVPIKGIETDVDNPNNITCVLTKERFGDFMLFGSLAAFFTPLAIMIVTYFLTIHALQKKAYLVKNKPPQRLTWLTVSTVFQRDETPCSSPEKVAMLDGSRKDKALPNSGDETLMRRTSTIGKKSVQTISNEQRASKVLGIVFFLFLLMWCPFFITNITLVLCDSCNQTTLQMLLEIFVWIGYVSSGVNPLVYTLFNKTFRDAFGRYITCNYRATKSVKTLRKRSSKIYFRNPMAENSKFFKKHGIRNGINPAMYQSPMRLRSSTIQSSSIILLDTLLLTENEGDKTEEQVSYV
Sequence of hSERT (P31645 whole entry): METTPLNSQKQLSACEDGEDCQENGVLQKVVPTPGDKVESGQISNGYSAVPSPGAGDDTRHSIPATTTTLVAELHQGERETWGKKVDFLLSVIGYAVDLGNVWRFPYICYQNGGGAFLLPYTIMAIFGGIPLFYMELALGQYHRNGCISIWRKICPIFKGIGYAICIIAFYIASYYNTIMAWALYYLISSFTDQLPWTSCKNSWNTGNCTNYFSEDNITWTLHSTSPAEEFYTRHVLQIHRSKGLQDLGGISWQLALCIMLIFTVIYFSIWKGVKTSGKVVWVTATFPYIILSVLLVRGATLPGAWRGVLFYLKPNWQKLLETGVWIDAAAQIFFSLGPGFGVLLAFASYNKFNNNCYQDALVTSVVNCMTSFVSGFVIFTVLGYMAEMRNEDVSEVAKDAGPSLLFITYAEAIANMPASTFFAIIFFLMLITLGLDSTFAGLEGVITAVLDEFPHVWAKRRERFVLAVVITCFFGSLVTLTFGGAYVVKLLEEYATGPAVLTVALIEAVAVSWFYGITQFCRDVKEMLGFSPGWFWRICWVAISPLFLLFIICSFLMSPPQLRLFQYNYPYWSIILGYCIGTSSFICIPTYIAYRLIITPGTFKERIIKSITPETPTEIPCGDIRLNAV
Sequence of hNET (P23975 whole entry): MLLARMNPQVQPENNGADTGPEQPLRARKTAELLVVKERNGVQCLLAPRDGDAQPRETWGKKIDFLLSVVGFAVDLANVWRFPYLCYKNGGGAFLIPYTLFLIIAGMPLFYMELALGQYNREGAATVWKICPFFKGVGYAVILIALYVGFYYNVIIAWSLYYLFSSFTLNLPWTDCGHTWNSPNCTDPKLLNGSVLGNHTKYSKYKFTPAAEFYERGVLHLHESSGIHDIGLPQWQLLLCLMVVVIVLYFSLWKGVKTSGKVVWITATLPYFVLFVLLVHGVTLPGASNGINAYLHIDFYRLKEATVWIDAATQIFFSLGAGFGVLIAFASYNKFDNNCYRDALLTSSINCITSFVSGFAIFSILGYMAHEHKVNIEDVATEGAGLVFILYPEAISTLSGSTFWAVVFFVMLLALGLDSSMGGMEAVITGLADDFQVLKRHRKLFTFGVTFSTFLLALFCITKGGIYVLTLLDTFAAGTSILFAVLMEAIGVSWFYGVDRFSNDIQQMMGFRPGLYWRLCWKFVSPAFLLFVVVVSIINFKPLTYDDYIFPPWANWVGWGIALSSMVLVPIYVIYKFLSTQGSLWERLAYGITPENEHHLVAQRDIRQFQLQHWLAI

Row | Structure (SMILES) | Ki (hNET) [nM] | Ki (hD2 receptor) [nM] | Ki (hα1A adrenergic receptor) [nM] | Ki (hDAT; hDAT Ki ± SD, [3H]WIN35,428) [nM] | EC50 (human 5-HT2A receptor) [nM] | type of agonism at the 5-HT2A receptor (human 5-HT2A receptor) | Emax (human 5-HT2A receptor) [%] | EC50 (human 5-HT2B receptor) [nM] | Emax (human 5-HT2B receptor) [%] | Ki (h5-HT2A receptor) [nM] | fold difference in 5-HT2A receptor affinity between Ψ derivative and its 2,4,5-trisubstituted counterpart (h5-HT2A receptor; TMA-6 vs TMA-2, Ψ-2C-O-16 vs 2C-O-16, Ψ-MALM vs MALM: higher affinity of the Ψ derivative) | Selectivity (binding ratio) 5-HT2A/5-HT1A (h5-HT2A receptor) | Selectivity (binding ratio) 5-HT2A/5-HT2C (h5-HT2A receptor) | Ki (hα2A adrenergic receptor) [nM] | Ki (hSERT; hSERT Ki ± SD, [3H]citalopram) [nM] | Ki (rTAAR1) [nM] | Ki (hDAT; DAT Ki) [nM] | Ki (hSERT; SERT Ki, no binding observed) [nM] | fold difference in 5-HT2B activation potency, amphetamine vs phenethylamine counterpart (human 5-HT2B receptor; Ψ-MEM vs Ψ-2C-O-2) [fold]
1 | C=CCOc1cc(OC)c(CC(C)N)c(OC)c1 (stereo not drawn) [Ψ-MALM, 4-allyloxy-2,6-dimethoxyamphetamine] | > 8800 | > 6000 | 1400 | > 8500 | 180 ± 70 | partial agonists | 66 ± 6 | 55 ± 24 | 69 ± 19 | 75 ± 11 | 2–5 fold | >75 | 10 | 1800 | > 7500 | 58 ± 11 |  |  | 
2 | COc1cc(OCc2ccccc2)cc(OC)c1CC(C)N (stereo not drawn) [Ψ-MBnM, 4-benzyloxy-2,6-dimethoxyamphetamine] | 7100 | > 6000 | 5800 | 1800 | 430 ± 150 |  | 39 ± 6 | > 10000 |  | 21 ± 2 |  |  | 13 | 2000 | > 7500 | 6.1 ± 0.7 | 1300 to 1800 | < 7500 | 
3 | COc1cc(OCC(F)F)cc(OC)c1CC(C)N (stereo not drawn) [Ψ-MDFEM, 4-(2,2-difluoroethoxy)-2,6-dimethoxyamphetamine] | > 8800 | > 6000 | 3900 | 5400 | 1100 |  | 34 ± 7 | > 10000 |  | 950 ± 240 |  | >6 | 10 | 3300 | > 7500 | 66 ± 13 |  |  | 
4 | CCOc1cc(OC)c(CC(C)N)c(OC)c1 (stereo not drawn) [Ψ-MEM, 2,6-dimethoxy-4-ethoxyamphetamine] | > 8800 | > 6000 | 6010 | > 8500 | 650 ± 210 |  | 54 ± 5 | 260 ± 160 | 28 ± 11 | 490 ± 20 |  | >11 | 10 | 2200 | > 7500 | 110 ± 10 |  |  | 8
5 | COc1cc(OCCF)cc(OC)c1CC(C)N (stereo not drawn) [Ψ-MFEM, 2,6-dimethoxy-4-(2-fluoroethoxy)amphetamine] | > 8800 | > 6000 | 6700 | > 8500 | 1300 |  | 37 ± 2 | > 10000 |  | 1400 |  | >4 | 7.1 | 4100 | > 7500 | 52 ± 18 |  |  | 
6 | C=C(C)COc1cc(OC)c(CC(C)N)c(OC)c1 (stereo not drawn) [Ψ-MMALM, 2,6-dimethoxy-4-methallyloxyamphetamine] | > 8800 | > 6000 | 2200 | 5700 | 58 ± 28 | partial agonists | 68 ± 9 | 93 ± 26 | 33 ± 11 | 52 ± 10 |  | >108 | 5.6 | 1400 | > 7500 | 32 ± 5 |  |  | 
7 | COc1cc(OCC(F)(F)F)cc(OC)c1CC(C)N (stereo not drawn) [Ψ-MTFEM, 2,6-dimethoxy-4-(2,2,2-trifluoroethoxy)amphetamine] | > 8800 | > 6000 | 6100 | 6400 | 1100 |  | 33 ± 6 | > 10000 |  | 570 ± 80 |  | >10 | 9.6 | 3800 | > 7500 | 110 ± 40 |  |  | 
